Laboratory results: US20050101612A1, “Use of indole-3-acetic acids in the treatment of asthma, copd and other diseases” (priority 2002, published 2005)

Tests used:
CRTh2 receptor = biological target: T1, CRTh2 receptor (Homo sapiens, UniProt Q9Y5Y4); assay: Intracellular calcium mobilisation (FLIPR, inhibition of PGD2 response) in HEK-hrCRTh2-Gα16 cells; assay type: cell-based; conditions: antagonism of 2×p[A]50 PGD2, Cheng-Prusoff analysis, read-out: pA2 (converted)
T1 construct: expressed in transfected cells
T1 sequence (Q9Y5Y4 1-395): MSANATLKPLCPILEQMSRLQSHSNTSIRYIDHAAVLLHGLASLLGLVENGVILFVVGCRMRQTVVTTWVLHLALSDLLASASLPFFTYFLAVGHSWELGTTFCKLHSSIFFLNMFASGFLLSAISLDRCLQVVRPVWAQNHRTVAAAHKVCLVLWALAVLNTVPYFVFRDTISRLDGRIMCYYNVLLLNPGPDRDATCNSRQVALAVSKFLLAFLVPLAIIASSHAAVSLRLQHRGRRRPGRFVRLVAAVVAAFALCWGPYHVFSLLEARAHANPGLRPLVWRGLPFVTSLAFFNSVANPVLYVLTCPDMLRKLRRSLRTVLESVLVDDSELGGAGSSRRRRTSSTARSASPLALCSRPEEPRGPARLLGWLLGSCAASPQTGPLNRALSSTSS
Experimental: Intracellular Calcium Mobilisation
Human Embryonic Kidney Cells co-transfected with both the CRTh2 receptor and Gα16 G-protein (HEK-hrCRTh2-Gα16) are routinely cultured as monolayers in Dulbecco's Modified Eagles Medium (DMEM; Sigma) supplemented with 10% (v:v) heat inactivated foetal bovine serum (New Zealand sourced; Hyclone), 1% (v:v) non-essential amino acids (Gibco BRL), 1% (v:v) penicillin/streptomycin (Gibco BRL), 2 mM L-glutamine (Gibco BRL) and grown under 1 mg/ml (v:v) Geneticin (Gibco BRL) antibiotic selection. Approximately 24 hours prior to the assay the cells are plated at a seeding density of 100,000 cells/well in 100 μl growth media into black walled 96 well Poly-D-Lysine coated plates (Becton Dickinson), with clear bottoms to allow cell inspection and fluorescence measurements from the bottom of each well. All cultures are maintained under standard tissue culture conditions (37° C. in a humidified atmosphere of 5% CO2).
To enable changes in intracellular calcium levels to be measured in HEK-hrCRTh2-Gα16 cells fluo-3AM is utilised as the fluorescent calcium indicator. A dye loading buffer is prepared which consists of a final concentration of 5 μM Fluo-3AM fluorescent cytoplasmic calcium indicator dye (Tef Labs), 2.2 μl/ml Pluronic F127 (Molecular Probes) to promote dye uptake, and 0.5 mM brilliant black (Sigma) to reduce background fluorescence in Balanced Salt Solution (BSS; 125 mM NaCl, 5.4mM KCl, 16.2 mM NaHCO3, 0.8 mM MgCl2, 1 mM CaCl2, 20 mM HEPES, 1 mM NaH2PO4, 5.5 mM D-(+)-Glucose, 0.1% BSA and pH 7.4 with NaOH). […]
Test compounds are made up at a stock concentration of 10 mM in DMSO. The compounds to be evaluated are then prepared, by serial dilution in BSS buffer, to the required concentrations for inhibition dose response curves to be constructed. […] This allows the potency agonist ([A]50) value to be determined for the HEK-hrCRTh2-Gα16 cells on any given day. Once the p[A]50 for PGD2 has been determined a separate assay plate containing 2×p[A]50 of PGD2 is prepared as the 2nd addition plate (or agonist plate). […]

melting point	Kb (CRTh2 receptor)	Structure (SMILES)
160 to 162 °C	316 nM	COc1ccc2c(c1)c(CC(=O)O)c(C)n2-c1cc(C)nc(-c2ccccc2)n1 [Example 1, [5-methoxy-2-methyl-1-(6-methyl-2-phenylpyrimidin4-yl)-1H-indol-3-yl]acetic acid]
158 to 160 °C	316 nM	COc1ccc2c(c1)c(CC(=O)O)c(C)n2-c1nc2ccccc2s1 [Example 2, [1-(1,3-benzothiazol-2-yl)-5-methoxy-2-methyl-1H-indol-3-yl]acetic acid]
168 to 170 °C	–	COc1ccc2c(c1)c(CC(=O)O)c(C)n2-c1cc(Oc2ccccc2)nc(Oc2ccccc2)n1 [Example 3, [1-(2,6-diphenoxypyrimidin-4-yl)-5-methoxy-2-methyl-1H-indol-3-yl]acetic acid]
–	158 nM	Cc1ccc2c(c1)c(CC(=O)O)c(C)n2-c1cc(Oc2ccccc2)nc(Oc2ccccc2)n1 [[1-(2,6-diphenoxypyrimidin-4-yl)-2,5-dimethyl-1H-indol-3-yl]acetic acid]
